# Experimental data from the supplement of paper PMC10307832.
# Legend:
# Assay in all cases: relative viability (nuclei count vs DMSO), 5 days (fraction); higher = more cells survive
# Afatinib + Pemetrexed = compound: CN(C)C/C=C/C(=O)Nc1cc2c(Nc3ccc(F)c(Cl)c3)ncnc2cc1O[C@H]1CCOC1 [Afatinib] + Nc1nc2[nH]cc(CCc3ccc(C(=O)N[C@@H](CCC(=O)O)C(=O)O)cc3)c2c(=O)[nH]1 [Pemetrexed] (partner 0.2 µM)
# Method in brief: (§1)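 One day after seeding in 1536-well plates, lung cancer cell lines were dosed by pin tool. Dosing was either single-drug or a fixed anchor-drug dose plus five library-drug doses (not always all listed) in √10 steps. After 5 days, nuclei were stained in one fix-and-stain step and counted on 4× images, and relative viability is the nuclei count of treated wells over that of vehicle wells, given as the median of duplicate plates.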
# Afatinib + Crizotinib = compound: CN(C)C/C=C/C(=O)Nc1cc2c(Nc3ccc(F)c(Cl)c3)ncnc2cc1O[C@H]1CCOC1 [Afatinib] + C[C@@H](Oc1cc(-c2cnn(C3CCNCC3)c2)cnc1N)c1c(Cl)ccc(F)c1Cl [Crizotinib] (partner 1 µM)
# Method in brief: as §1
# Afatinib + Dasatinib = compound: CN(C)C/C=C/C(=O)Nc1cc2c(Nc3ccc(F)c(Cl)c3)ncnc2cc1O[C@H]1CCOC1 [Afatinib] + Cc1nc(Nc2ncc(C(=O)Nc3c(C)cccc3Cl)s2)cc(N2CCN(CCO)CC2)n1 [Dasatinib] (partner 0.075 µM)
# Method in brief: as §1
# Afatinib + Lapatinib = compound: CN(C)C/C=C/C(=O)Nc1cc2c(Nc3ccc(F)c(Cl)c3)ncnc2cc1O[C@H]1CCOC1 [Afatinib] + CS(=O)(=O)CCNCc1ccc(-c2ccc3ncnc(Nc4ccc(OCc5cccc(F)c5)c(Cl)c4)c3c2)o1 [Lapatinib] (partner 2 µM)
# Method in brief: as §1
Cell Line,relative viability (Afatinib + Pemetrexed; first compound 0.005 µM),relative viability (Afatinib + Pemetrexed; first compound 0.01581 µM),relative viability (Afatinib + Pemetrexed; first compound 0.05 µM),relative viability (Afatinib + Pemetrexed; first compound 0.1581 µM),relative viability (Afatinib + Pemetrexed; first compound 0.5 µM),relative viability (Afatinib + Crizotinib; first compound 0.005 µM),relative viability (Afatinib + Crizotinib; first compound 0.01581 µM),relative viability (Afatinib + Crizotinib; first compound 0.05 µM),relative viability (Afatinib + Crizotinib; first compound 0.1581 µM),relative viability (Afatinib + Crizotinib; first compound 0.5 µM),relative viability (Afatinib + Dasatinib; first compound 0.005 µM),relative viability (Afatinib + Dasatinib; first compound 0.01581 µM),relative viability (Afatinib + Dasatinib; first compound 0.05 µM),relative viability (Afatinib + Dasatinib; first compound 0.1581 µM),relative viability (Afatinib + Dasatinib; first compound 0.5 µM),relative viability (Afatinib + Lapatinib; first compound 0.005 µM),relative viability (Afatinib + Lapatinib; first compound 0.01581 µM),relative viability (Afatinib + Lapatinib; first compound 0.05 µM),relative viability (Afatinib + Lapatinib; first compound 0.1581 µM),relative viability (Afatinib + Lapatinib; first compound 0.5 µM)
NCI-H1993,0.569,0.526,0.638,0.551,0.506,0.647,0.732,0.656,0.76,0.771,0.459,0.561,0.585,0.729,0.576,0.835,0.848,1.11,1.01,0.848
NCI-H596,0.537,0.492,0.504,0.548,0.489,0.987,0.866,0.94,0.904,0.921,0.445,0.456,0.643,0.538,0.602,1.09,1.08,1.09,1.02,1.02
NCI-H1563,0.782,0.719,0.921,0.777,0.822,0.844,0.835,0.872,0.795,0.882,0.476,0.435,0.437,0.501,0.451,0.965,0.874,1.08,1.04,0.854
